Inconclusive results and toxic doses are left out. Cut-off read from the data, not from the text of the source: active = T/C of 150% or more; inactive = T/C below 125%.
Test system: L1210 leukemia ip in BDF1 mice, survival T/C
Experiment: NCI In Vivo Anticancer Drug Screen. Data for tumor model L1210 Leukemia (intraperitoneal) in B6D2F1 (BDF1) mice
Conditions: endpoint: mean survival time, higher = longer survival
How it was run: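 Tumor cells were implanted, animals were treated, and survival was followed. The result divides the treated measurement by the vehicle-control measurement.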

[1] = dose: 100.0 mg/kg/injection, schedule: Q01DX009 (ip), vehicle: Klucel (hydroxypropylcellulose) (HPC)
[2] = dose: 100.0 mg/kg/injection, schedule: Q04DX002 (ip), vehicle: saline with Tween-80
[3] = dose: 200.0 mg/kg/injection, schedule: Q04DX002 (ip), vehicle: saline with Tween-80
[4] = dose: 400.0 mg/kg/injection, schedule: Q04DX002 (ip), vehicle: saline with Tween-80
[5] = dose: 50.0 mg/kg/injection, schedule: Q01DX001 (ip), vehicle: saline
[6] = dose: 100.0 mg/kg/injection, schedule: Q01DX001 (ip), vehicle: saline
[7] = dose: 200.0 mg/kg/injection, schedule: Q01DX001 (ip), vehicle: saline

Measured: T/C

O=C(Nc1cccc2ccccc12)c1ccc(Cl)cc1Cl
inactive: [1] 103 % of control | dose: 200.0 mg/kg/injection, schedule: Q01DX009 (ip), vehicle: Klucel (hydroxypropylcellulose) (HPC) 100 % of control | dose: 400.0 mg/kg/injection, schedule: Q01DX009 (ip), vehicle: Klucel (hydroxypropylcellulose) (HPC) 96 % of control

C[C@]12CCC(=O)C=C1CC[C@H]1[C@@H]3CCC(=O)O[C@@]3(C)CC(=O)[C@@]12F
inactive: dose: 100.0 mg/kg/injection, schedule: Q01DX001 (ip), vehicle: carboxymethylcellulose (CMC) 94 % of control | dose: 200.0 mg/kg/injection, schedule: Q01DX001 (ip), vehicle: carboxymethylcellulose (CMC) 100 % of control | dose: 400.0 mg/kg/injection, schedule: Q01DX001 (ip), vehicle: carboxymethylcellulose (CMC) 97 % of control

CCCCCCCCCCCC(=O)Nc1ccc(S(=O)(=O)NNc2ccccc2)cc1[N+](=O)[O-]
inactive: [1] 95 % of control | dose: 100.0 mg/kg/injection, schedule: Q04DX003 (ip), vehicle: alcohol 94 % of control | dose: 200.0 mg/kg/injection, schedule: Q04DX003 (ip), vehicle: alcohol 95 % of control | dose: 400.0 mg/kg/injection, schedule: Q04DX003 (ip), vehicle: alcohol 90 % of control

O=C(COc1cc(Cl)c(Cl)cc1Cl)Nc1ccc([N+](=O)[O-])cc1Cl
inactive: [2] 102 % of control | [3] 109 % of control | [4] 98 % of control

CNC(=O)C(c1ccccc1)C(O)c1ccccc1 (stereo not given)
inactive: [5] 103 % of control | [6] 101 % of control | [7] 103 % of control

CC1CC(C)S(=O)(=O)C1 (stereo not given)
inactive: dose: 12.5 mg/kg/injection, schedule: Q01DX009 (ip), vehicle: saline 94 % of control | dose: 12.5 mg/kg/injection, schedule: Q04DX003 (ip), vehicle: saline 97 % of control | dose: 25.0 mg/kg/injection, schedule: Q01DX001 (ip), vehicle: saline 104 % of control | dose: 25.0 mg/kg/injection, schedule: Q01DX009 (ip), vehicle: saline 108 % of control | dose: 25.0 mg/kg/injection, schedule: Q04DX003 (ip), vehicle: saline 95 % of control | [5] 104 % of control | dose: 50.0 mg/kg/injection, schedule: Q01DX009 (ip), vehicle: saline 91 % of control | dose: 50.0 mg/kg/injection, schedule: Q04DX003 (ip), vehicle: saline 93 % of control

CC(Cl)C(=O)NC(C)C(=O)O (stereo not given)
inactive: dose: 12.5 mg/kg/injection, schedule: Q04DX002 (ip), vehicle: saline 97 % of control | dose: 25.0 mg/kg/injection, schedule: Q04DX002 (ip), vehicle: saline 111 % of control | dose: 50.0 mg/kg/injection, schedule: Q04DX002 (ip), vehicle: saline 97 % of control

O=C(Nc1cc(C(F)(F)F)ccc1Cl)c1ccccc1F
inactive: [2] 102 % of control | [3] 102 % of control | [4] 108 % of control

O=[N+]([O-])c1ccc(F)c(Cl)c1F
inactive: dose: 10.0 mg/kg/injection, schedule: Q04DX003 (ip), vehicle: Klucel (hydroxypropylcellulose) (HPC) 103 % of control | dose: 20.0 mg/kg/injection, schedule: Q04DX003 (ip), vehicle: Klucel (hydroxypropylcellulose) (HPC) 106 % of control | dose: 40.0 mg/kg/injection, schedule: Q04DX003 (ip), vehicle: Klucel (hydroxypropylcellulose) (HPC) 99 % of control

COC1OCC(OC(C)=O)C(NC(C)=O)C1OC(C)=O (stereo not given)
inactive: [6] 100 % of control | [7] 101 % of control | dose: 400.0 mg/kg/injection, schedule: Q01DX001 (ip), vehicle: saline 111 % of control

COc1cc2c(cc1OC)C(=O)C(C(=O)c1ccccc1)C2 (stereo not given)
inactive: dose: 100.0 mg/kg/injection, schedule: Q04DX003 (ip), vehicle: Klucel (hydroxypropylcellulose) (HPC) 89 % of control | dose: 200.0 mg/kg/injection, schedule: Q04DX003 (ip), vehicle: Klucel (hydroxypropylcellulose) (HPC) 109 % of control | dose: 400.0 mg/kg/injection, schedule: Q04DX003 (ip), vehicle: Klucel (hydroxypropylcellulose) (HPC) 94 % of control

O=C(Nc1ccccc1)Oc1c(Cl)cc(Cl)cc1Cl
inactive: dose: 0.78 mg/kg/injection, schedule: Q04DX002 (ip), vehicle: Klucel (hydroxypropylcellulose) (HPC) 97 % of control | dose: 1.56 mg/kg/injection, schedule: Q04DX002 (ip), vehicle: Klucel (hydroxypropylcellulose) (HPC) 112 % of control | dose: 3.13 mg/kg/injection, schedule: Q04DX002 (ip), vehicle: Klucel (hydroxypropylcellulose) (HPC) 94 % of control | dose: 6.25 mg/kg/injection, schedule: Q04DX002 (ip), vehicle: Klucel (hydroxypropylcellulose) (HPC) 92 % of control | dose: 12.5 mg/kg/injection, schedule: Q04DX002 (ip), vehicle: Klucel (hydroxypropylcellulose) (HPC) 110 % of control | dose: 25.0 mg/kg/injection, schedule: Q04DX002 (ip), vehicle: Klucel (hydroxypropylcellulose) (HPC) 95 % of control

Source: PubChem BioAssay AID248 (DTP/NCI, 2004)
